Results on ten compounds are retold here after ChEMBL document CHEMBL1857833, “Screening and optimization of specific chemical series against human African Trypanosomiasis (HAT)”.

The subject of data set [1] is Trypanosoma brucei. Nature of the data set: DNDI: Inhibition of Human African Trypanosomiasis, SBRI 427, in vitro. The settings on record: Trypanosoma brucei, SBRI 427; read-out: IC50. The class given is functional, organism-based.
The nature of data set [2]: DNDI: Cytotoxicity against L929 mouse fibroblasts, CYTO-SP, 24 hour. The class given is toxicity, cell-based. The settings on record: mouse, L929 mouse fibroblasts.
Data set [3] deals with Trypanosoma brucei. Nature of the data set: DNDI: Inhibition of Human African Trypanosomiasis, EATRO 110, in vitro. Format: functional, organism-based.
A short description of data set [4]: DNDI: Solubility in phosphate buffered saline at pH7.4 measured by optical density (turbidimetry) at room temperature (OD-RT). Format: physicochemical. The settings on record: pH 7.4.
A short description of data set [5]: DNDI: in vitro intrinsic clearance in human liver microsomes at a concentration of 10uM. Format: ADME, Microsome. (In general: Liver microsomes are vesicles of endoplasmic reticulum, rich in cytochrome P450 enzymes.)
Data set [6] in a line: DNDI: Lipophilicity measured in Chromatographic hydrophobicity index (CHI) assay, pH 7.4. Format: physicochemical. The conditions noted are these: buffer.
Data set [7] in a line: DNDI: half life in mouse liver microsomes at a concentration of 10uM. The class given is ADME, Microsome.
Data set [8] in a line: DNDI: half life in human liver microsomes at a concentration of 10uM. Format: ADME, Microsome.
Data set [9] is described as follows: DNDI: in vitro intrinsic clearance in mouse liver microsomes at a concentration of 10uM. Format: ADME, Microsome. The conditions noted are these: read-out: CLint in vitro.
The nature of data set [10]: DNDI: Cytotoxicity against L929 mouse fibroblasts, 72 hour. Format: toxicity, cell-based. The conditions noted are these: mouse, L929 mouse fibroblasts.
For data set [11], the system named is Trypanosoma brucei. Nature of the data set: (§1) DNDI: Mean survival time in days (MSD) of mice after intraperitoneal injection of Human African Trypanosomiasis (HAT), EATRO 110, in vivo at 20 mg/kg/day for 4 days. Format: functional, Mus musculus.
For data set [12] the following is noted: mouse, microsomes, 1 µM.
Description: DNDI: in vitro intrinsic clearance in mouse liver microsomes at a concentration of 1uM
The test system of data set [13] is Trypanosoma brucei. The data set is described as §1. Format: functional, Mus musculus. This is another data set of the same source.
Data set [14] in a line: in vitro. The conditions noted are these: mouse, t (1 / 2).
Description: DNDI: half life in mouse liver microsomes at a concentration of 1uM
A short description of data set [15]: DNDI: Solubility in phosphate buffered saline at pH7.4 measured by nephelometry at room temperature (NEPH-RT). The settings on record: pH 7.4. Format: physicochemical.
The test system of data set [16] is Trypanosoma brucei rhodesiense. Nature of the data set: DNDI: Inhibition of Human African Trypanosomiasis (HAT), STIB 900, in vitro. The class given is functional, organism-based.
Another data set concerns Leishmania donovani. Briefly: DNDI: Inhibition of formation of Leishmania donovani (strain MHOM/ET/67/L82) axenic amastigotes, in vitro. Format: functional, organism-based.
In a further data set the test system is Plasmodium falciparum. Briefly: DNDI: Inhibition of the malaria parasite Plasmodium falciparum, in vitro. Format: functional, organism-based. The conditions noted are these: K1.
In the next data set the test system is Trypanosoma cruzi. Nature of the data set: DNDI: Inhibition of Chagas Disease parasite Trypanosoma cruzi (Tulahuen LacZ, Clone C4), in vitro. The class given is functional, organism-based.
A short description of data set [17]: DNDI: Cytotoxicity against L-6 rat myoblasts from skeletal muscle cells. Format: toxicity, cell-based, L6. The conditions noted are these: L-6 rat skeletal muscle myoblasts.
A short description of data set [18]: DNDI: % of compound remaining in rat S9 microsomes at a concentration of 1uM. Format: ADME, subcellular, Liver, S9 fraction.
The nature of data set [19]: DNDI: % of compound remaining in mouse S9 microsomes at a concentration of 1uM after 60 mins. Format: ADME, subcellular, Liver, S9 fraction.
Data set [20] relates to Trypanosoma brucei. Nature of the data set: DNDI: Inhibition of Human African Trypanosomiasis, Cross 22, in vitro. The class given is functional, organism-based.
Data set [21] is described as follows: in vitro. The conditions noted are these: human, microsomes, t (1 / 2).
Description: DNDI: half life in human liver microsomes at a concentration of 1uM
A short description of data set [22]: in vitro. The conditions noted are these: human, microsomes, CLint in vitro.
Description: DNDI: in vitro intrinsic clearance in human liver microsomes at a concentration of 1uM

SMILES strings stand for the structures. Values after ≈ are worked out from the molar mass of the structure shown.

As for `O/N=C(\NC1CCCCC1)c1cccnc1Oc1ccccc1Br`, the IC50 (commonly the concentration that inhibits the measured activity by half) in the data set with Trypanosoma brucei [1] worked out at 1.13 µg/mL (≈ 2.9 µM); in the data set on Trypanosoma brucei [3], 1.56 µg/mL (≈ 4 µM). The same compound had an IC50 at 24 h in data set [2] of more than 50 µg/mL.

Turning to `CCc1ccccc1Oc1ncccc1/C(=N\O)NC1CCCCC1`, the solubility (kinetic) (commonly the concentration staying in solution when a stock, usually in DMSO, is diluted into the medium) in data set [4] came to 6.3 µM (≈ 2.14 µg/mL). The CLint in vitro in [5] stood at 27 µL/min/mg. The results for the IC50 in the data set on Trypanosoma brucei [1] and with Trypanosoma brucei [3] were 0.79 µg/mL (≈ 2.33 µM) and 2.15 µg/mL (≈ 6.33 µM), respectively. Further, the chromatographic logD (in general, a lipophilicity value derived from retention on a column) in [6] was determined as 4.31. In [2], the IC50 at 24 h is more than 50 µg/mL. The half-life (in general, how long it takes for the measured level to halve) at 10 µM was 21 min in data set [7] and 106 min in data set [8]. In addition, the microsomal CLint at 10 µM in [9] is 140 µL/min/mg.

With `CCCCCC(C)NCc1coc(-c2ccccc2Oc2ccccc2)n1` (stereo not drawn), the 50% inhibitory concentration (IC50) at 72 h in data set [10] turned out to be 6.3 µg/mL (≈ 17.3 µM). In the data set with Trypanosoma brucei [1], the IC50 amounted to 2.98 µg/mL (≈ 8.18 µM). The MSD in the data set on Trypanosoma brucei [11] is 4 days; in the data set on Trypanosoma brucei [13], 5 days. In data set [12], this compound returned a CLint in vitro of 220 µL/min/mg. In the data set “in vitro [14]” (liver microsomes), this compound returned a half-life at 1 µM of 4 min.

Take `CCCCCOc1ccc(-c2nc(CN[C@@H]3C[C@@H]4C[C@H]([C@H]3C)C4(C)C)co2)cc1`: in [10], the IC50 at 72 h is less than 3.13 µg/mL. Also, the kinetic solubility in [15] was determined as 2 µM (≈ 0.793 µg/mL). Further, the IC50 in the data set with Trypanosoma brucei [1] came to 0.12 µg/mL (≈ 0.303 µM). Further, in data set [6], the chromatographic logD came out at 6.5. Moreover, in [2], the IC50 at 24 h is 38.9 µg/mL (≈ 98.1 µM). Also, the CLint in vitro in data set [12] is 60 µL/min/mg. In addition, the MSD in the data set with Trypanosoma brucei [13] was 4.5 days. In addition, the half-life at 1 µM in the data set “in vitro [14]” (liver microsomes) is 14 min.

In data set [10], `CC1CC(NCc2coc(-c3ccc(OC(C)C)cc3)n2)CC(C)(C)C1` (stereo not drawn) yielded a half-maximal inhibitory concentration (IC50) at 72 h of 1.51 µg/mL (≈ 4.24 µM). Besides, the IC50 in the data set with Trypanosoma brucei [1] was 0.79 µg/mL (≈ 2.22 µM). Moreover, the values for the MSD in the data set on Trypanosoma brucei [11] and in the data set on Trypanosoma brucei [13] were 4 days and 3.5 days, respectively. The compound further gave a CLint in vitro in data set [12] of 26 µL/min/mg. The half-life at 1 µM in the data set “in vitro [14]” (liver microsomes) was 33 min.

With `O/N=C(/NC1CCCCC1)c1cccnc1Oc1ccccc1F`, the IC50 at 72 h in data set [10] is more than 10 µg/mL. In addition, the kinetic solubility in data set [4] is 50 µM (≈ 16.5 µg/mL). In data set [5], this compound came in with a CLint in vitro of 16 µL/min/mg. The IC50 with Trypanosoma brucei [1] is 0.58 µg/mL (≈ 1.76 µM); in data set [16], 20.8 µg/mL (≈ 63.1 µM); with Leishmania donovani, 19.9 µg/mL (≈ 60.5 µM); in the data set on Trypanosoma brucei [3], 1.5 µg/mL (≈ 4.55 µM); with Plasmodium falciparum, more than 5 µg/mL; with Trypanosoma cruzi, more than 30 µg/mL. Further, in data set [17], the IC50 is 54.3 µg/mL (≈ 165 µM). For the same compound, the chromatographic logD in data set [6] worked out at 3.99. In data set [2], this compound returned an IC50 at 24 h of more than 50 µg/mL. The values for the half-life at 10 µM in data set [7] and in data set [8] were 10 min and 185 min, respectively. The microsomal CLint at 10 µM in data set [9] came out at 275 µL/min/mg.

For `CSc1ccccc1Oc1ncccc1/C(=N\O)NC1CCCCC1`, the IC50 in the data set on Trypanosoma brucei [1] was 0.62 µg/mL (≈ 1.73 µM); in the data set on Trypanosoma brucei [3] it was 1.34 µg/mL (≈ 3.75 µM). In addition, the IC50 at 24 h in [2] was more than 50 µg/mL.

Turning to `CCCCCOc1ccc(-c2nc(CNC(C)CCCCC)co2)cc1` (stereo not drawn), the fraction remaining (as a rule, the share of the starting amount still present when the sample was taken) at 1 µM in data set [18] was 0.555%. The same compound returned an IC50 at 72 h in data set [10] of less than 3.13 µg/mL. The IC50 in the data set with Trypanosoma brucei [1] came to 0.33 µg/mL (≈ 0.92 µM). Further, the amount remaining at 1 h, 1 µM in data set [19] amounted to 49.7%. For the same compound, the IC50 at 24 h in [2] stood at 32.4 µg/mL (≈ 90.4 µM). In addition, the CLint in vitro in [12] came to 13 µL/min/mg. The same compound displayed a half-life at 1 µM in the data set “in vitro [14]” (liver microsomes) of 68 min.

For `CCCCc1ccc(-c2nc(CN[C@@H]3C[C@@H]4C[C@H]([C@H]3C)C4(C)C)co2)cc1`, the IC50 at 72 h in data set [10] was 0.79 µg/mL (≈ 2.16 µM). In addition, the kinetic solubility in [15] turned out to be 6 µM (≈ 2.2 µg/mL). The IC50 in the data set on Trypanosoma brucei [20] came to 0.57 µg/mL (≈ 1.56 µM); in [16], 0.357 µg/mL (≈ 0.974 µM); in the data set with Leishmania donovani it was 4.61 µg/mL (≈ 12.6 µM); with Plasmodium falciparum, 0.497 µg/mL (≈ 1.36 µM); in the data set on Trypanosoma cruzi it was 1.4 µg/mL (≈ 3.82 µM); in [17], 3.21 µg/mL (≈ 8.76 µM). Further, the half-life at 1 µM in the data set “in vitro [21]” turned out to be 81 min; in the data set “in vitro [14]” (microsomes), 13 min. The compound further had a chromatographic logD in data set [6] of 6.6. Further, in data set [2], the IC50 at 24 h was more than 50 µg/mL. Also, the microsomal CLint at 1 µM in “in vitro [22]” is 10 µL/min/mg. In addition, the MSD in the data set with Trypanosoma brucei [11] stood at 3.5 days.

`CCCCCC(C)NCc1coc(-c2ccc(OC(CC)CC)cc2)n1` (stereo not drawn) returned an IC50 at 72 h in data set [10] of 0.85 µg/mL (≈ 2.37 µM). The same compound returned a kinetic solubility in data set [15] of 1 µM (≈ 0.359 µg/mL). Besides, the IC50 in the data set on Trypanosoma brucei [1] was determined as 0.36 µg/mL (≈ 1 µM). In addition, the MSD in the data set with Trypanosoma brucei [11] and with Trypanosoma brucei [13] was 4 days each time. Further, the CLint in vitro in data set [12] came out at 2 µL/min/mg. The compound also gave a half-life at 1 µM in the data set “in vitro [14]” (liver microsomes) of 476 min.
